Measurements reported in US8080544B2, “Prodrugs of CGRP receptor antagonists” (Merck Sharp & Dohme Corp., priority 2008, dated 2011).
In brackets after ≈: the same amount, converted by molar mass.

Key:
Aqueous solubility = format: physicochemical; details: for solubility: aqueous solution
Excerpt: The compounds of the present invention may have improved aqueous solubility compared with telcagepant.

[1] = In vivo conversion to telcagepant after IV dosing, rat (plasma AUC by LC/MS); details: 3.53 umol/kg, IV dose 3.53 μmol/kg, DMSO vehicle, plasma AUC of Compound 1 (telcagepant)
Excerpt: The compounds of the present invention may be efficiently converted to give parent telcagepant in vivo. For illustrative purposes, data for the in vivo conversion of Example 1 to telcagepant in preclinical species are shown in Table 2.

Row | solubility (Aqueous solubility; aqueous buffer, pH 4.0) [µg/mL] | solubility (Aqueous solubility; aqueous buffer, pH 9.0) [µg/mL] | AUC [1] [µM·h] | solubility (Aqueous solubility; aqueous buffer, pH 2.0) [µg/mL] | solubility (Aqueous solubility; pH 7.3, aqueous buffer) [µg/mL] | aqueous solubility (in words) (Aqueous solubility; general statement, no pH given) | SMILES
1 | > 150000 | > 150000 | – | – | – | – | O=C(N[C@@H]1CC[C@@H](c2cccc(F)c2F)CN(CC(F)(F)F)C1=O)N1CCC(n2c(=O)n(COP(=O)([O-])O)c3ncccc32)CC1.[Na+] [Example 1, {1-[1-({[(3R,6S)-6-(2,3-Difluorophenyl)-2-oxo-1-(2,2,2-trifluoroethyl)azepan-3-yl]amino}carbonyl)piperidin-4-yl]-2-oxo-1,2-dihydro-3H-imidazo[4,5-b]pyridin-3-yl}methyl hydrogen sodium phosphate]
2 | – | – | 6.46 | 77 (≈ 136 µM) | 31 (≈ 54.7 µM) | low aqueous solubility | O=C(N[C@@H]1CC[C@@H](c2cccc(F)c2F)CN(CC(F)(F)F)C1=O)N1CCC(n2c(=O)[nH]c3ncccc32)CC1 [Telcagepant, N-[(3R,6S)-6-(2,3-difluorophenyl)-2-oxo-1-(2,2,2-trifluoroethyl)azepan-3-yl]-4-(2-oxo-2,3-dihydro-1H-imidazo[4,5-b]pyridine-1-yl)piperidin-1-carboxamide]
